# Test results published in patent publication US10500198B2, “Bis-benzylidine piperidone proteasome inhibitor with anticancer activity” (The Johns Hopkins University, priority 2013, dated 2019).
# Structures can show the parent of a compound that is named as a salt.
# Key:
# NCI-H929 cells = test: Active caspase-3 by FACS; assay type: cell-based, human; details: 0.5 μM, 8 h
# Description: NCI-H929 cells were treated with RA195 (0.5 μM) and Bz(0.5 μM) for the period of 8 h. Cells were stained for PE-conjugated Caspase-3 antibody and measured active caspase-3 by FACS.
# U266 cells = test: Active caspase-3 by FACS; assay type: cell-based; details: 0.5 μM, 8 h
# Description: U266 cells were treated with RA195 (0.5 μM) and Bz(0.5 μM) for the period of 8 h. Cells were stained for PE-conjugated Caspase-3 antibody and measured active caspase-3 by FACS.
# [1] = tested on: tetraubiquitin-firefly luciferase (4UbFL) reporter in HeLa cells; test: Cell culture assay for luciferase (4UbFL reporter); assay type: cell-based, human; details: 4 hr treatment
# Description: Sub-confluent cultures of HeLa cells were transfected with 4UbFL or FL plasmids using Lipofectamine 2000 reagent (Life Technologies, Carlsbad, Calif.). […] Luciferase activity in cell lysate was determined with a luciferase assay kit (Promega, Madison, Wis.) according to the manufacturer's instructions. Bioluminescence was measured by using a Glomax Multidetection system (Promega, Madison, Wis., USA).
# HeLa cells were transiently transfected with tetra ubiquitin-fused firefly luciferase (4UB-FL) plasmid. After 48 h, the transfected cells were treated with titrations of the indicated compounds for 4 h, and luciferase activity was measured. Data is expressed as a 4UB-FL fold change compared to untreated cells.
# RPMI8226 = test: Cell viability after 48-hr treatment (Table 1); assay type: cell-based; details: Homo sapiens, RPMI-8226, XTT assay
# Description: (§1) Cells seeded at the concentration of 1,000 cells/well for HeLa, 5,000 cells/well for ES2 and HCT116 and 10,000-20,000 cells/well for other cell lines in 100 μL medium in 96-well plate were treated with RA series compounds at specified concentrations. […]
# SiHa = test: Cell viability after 48-hr treatment (Table 1); assay type: cell-based; details: Homo sapiens, SiHa; 48-hr treatment; XTT assay; read-out: IC50, SiHa
# Description: as §1
# HaCaT = test: Cell viability after 48-hr treatment (Table 1); assay type: cell-based; details: Homo sapiens, HaCaT; 48-hr treatment; XTT assay; read-out: IC50, HaCaT
# Description: as §1
# HT3 = test: Cell viability after 48-hr treatment (Table 1); assay type: cell-based; details: Homo sapiens, HT-3; 48-hr treatment; XTT assay; read-out: IC50, HT3
# Description: as §1
# HOK-16B = test: Cell viability after 48-hr treatment (Table 1); assay type: cell-based; details: 48-hr treatment; XTT assay; read-out: IC50, HOK-16B
# Description: (§2) Cell viability was assayed using CellTiter 960 AQueous One Solution Reagent (Promega, Madison, Wis.). Cells seeded at the concentration of 1,000 cells/well for HeLa, 5,000 cells/well for ES2 and HCT116 and 10,000-20,000 cells/well for other cell lines in 100 μL medium in 96-well plate were treated with RA series compounds at specified concentrations. After the indicated periods, cells were incubated according to the manufacturer's protocol with the MTS labeling mixture for 1-2 hr and absorbance at 490 nm measured using a Benchmark Plus microplate spectrophotometer (BIO-RAD).
# CasKi = test: Cell viability after 48-hr treatment (Table 1); assay type: cell-based; details: Homo sapiens, Ca-Ski; 48-hr treatment; XTT assay; read-out: IC50, CasKi
# Description: as §2
# HeLa = test: Cell viability after 48-hr treatment (Table 1); assay type: cell-based, human; details: Homo sapiens, HeLa; 48-hr treatment; XTT assay; read-out: IC50, HeLa
# Description: as §1, with “Cell viability was assayed using CellTiter 960 AQueous One Solution Reagent (Promega, Madison, Wis.). Cells” for “Cells”
# OVCAR3 = test: Cell viability after 48-hr treatment (Table 1); assay type: cell-based, human; details: Homo sapiens, OVCAR-3, XTT assay
# Description: as §1, with “Cell viability was assayed using CellTiter 960 AQueous One Solution Reagent (Promega, Madison, Wis.). Cells” for “Cells”
# C33A = test: Cell viability after 48-hr treatment (Table 1); assay type: cell-based; details: Homo sapiens, C-33-A; 48-hr treatment; XTT assay; read-out: IC50, C33A
# Description: as §1, with “Cell viability was assayed using CellTiter 960 AQueous One Solution Reagent (Promega, Madison, Wis.). Cells” for “Cells”
# FaDu = test: Cell viability after 48-hr treatment (Table 1); assay type: cell-based; details: Homo sapiens, FaDu; 48-hr treatment; XTT assay; read-out: IC50, FaDu
# Description: as §1, with “Cell viability was assayed using CellTiter 960 AQueous One Solution Reagent (Promega, Madison, Wis.). Cells” for “Cells”
# SKOV3 = test: Cell viability after 48-hr treatment (Table 1); assay type: cell-based; details: Homo sapiens, SK-OV-3; 48-hr treatment; XTT assay; read-out: IC50, SKOV3
# Description: as §1, with “Cell viability was assayed using CellTiter 960 AQueous One Solution Reagent (Promega, Madison, Wis.). Cells” for “Cells”
# MM.1S = test: Cell viability after 48-hr treatment (Table 1); assay type: cell-based; details: Homo sapiens, MM1.S, XTT assay
# Description: as §1, with “Cell viability was assayed using CellTiter 960 AQueous One Solution Reagent (Promega, Madison, Wis.). Cells” for “Cells”
# NCl-H929 = test: Cell viability after 48-hr treatment (Table 1); assay type: cell-based, human; details: Homo sapiens, XTT assay
# Description: as §1
# HeLa cells = test: Cell surface HSP90 staining; assay type: cell-based, human
# Source text: Cell surface HSP90 was detected by staining with purified anti-HSP90 mAb (Stressgen), followed by PE-conjugated anti-mouse IgG1. The data were acquired with a FACSCalibur and analyzed using CellQuest software.
smiles,measurement,setting,value
Cl.NCCCC[C@H](NC(=O)OCc1ccccc1Cl)C(=O)N1C/C(=C\c2ccc([N+](=O)[O-])cc2)C(=O)/C(=C/c2ccc([N+](=O)[O-])cc2)C1 [RA195Bn],active caspase-3,NCI-H929 cells,caused an increase in caspase-3 expression
same,active caspase-3,U266 cells,caused an increase in caspase-3 expression
same,proteasome inhibition by 4UbFL stabilization (relative potency),[1],more potent than the parent molecule RA195
"CC(=O)N[C@@H](Cc1ccccc1)C(=O)N1C/C(=C\c2ccc(Cl)c(Cl)c2)C(=O)/C(=C/c2ccc(Cl)c(Cl)c2)C1 [RA190Ac, 3,5-bis(3,4-dichlorobenzylidene)-1-(N-(1-oxo-S-3-phenyl-1-propan-2-yl)acetamide)-piperidin-4-one-HCl salt]",IC50,RPMI8226,150 nM
same,IC50,SiHa,1000 nM
same,IC50,HaCaT,> 2500 nM
same,IC50,HT3,> 5 µM
same,IC50,HOK-16B,750 nM
same,IC50,CasKi,300 nM
same,IC50,HeLa,170 nM
same,IC50,OVCAR3,2000 nM
same,IC50,C33A,> 5 µM
same,IC50,FaDu,> 2500 nM
same,IC50,SKOV3,> 2500 nM
same,IC50,MM.1S,50 nM
same,IC50,NCl-H929,75 nM
N.N.[Cl][Pt][Cl] [cisplatin],surface display of HSP90,HeLa cells,did not induce surface display of HSP90
